From US8937090B2, “Parakeratosis inhibitor, pore-shrinking agent and external composition for skin” (Shiseido Company, Ltd., priority 2005, dated 2015)

Experiments:
hairless mouse (HR-1) = experiment: Parakeratosis-inhibiting effect test (oleic acid applied to back of hairless mouse; visual rough skin evaluation and parakeratosis value); assay type: in vivo; settings: for parakeratosis-inhibiting effect: in words, summary of Table 1; for Visual evaluation (average of four animals): rough skin score, control = 2.0, no skin roughness = 0.0, 3 days application after 10 mass % oleic acid; for Parakeratosis value (average of four animals): scale 1.0 to 3.0, higher = parakeratosis advanced, control 2.0
Method: Aqueous solutions (containing 30 mass % of ethanol) of 3 mass % of a β-alanine derivative or salt thereof were prepared mainly as the evaluation sample. The pH was regulated by hydrochloric acid or sodium hydroxide so as to be 7.0 to 7.5. When sample solubility was low, the solution was prepared accordingly.
100 μL of 10 mass % oleic acid solution (solvent: ethanol) were applied to the back of a hairless mouse (HR-1; Hoshino Laboratory Animals). Then the sample solution (β-alanine derivative, and the like) was applied 100 μL at a time. This procedure was continued for three days. […] At the same time, the stratum corneum at the back of the hairless mouse was peeled off with tape, the nuclei were stained by hematoxylin, and the degree of parakeratosis was observed and evaluated by a parakeratosis value within a range of 1.0 to 3.0 (in 0.25 increments).

[1] = test system: cheeks of healthy human males; experiment: Human pore-shrinking effect (replica of cheek pores, three-dimensional laser scanning microscope); assay type: in vivo; settings: for pore-shrinking effect: in words, summary of Table 2; for Replica assessment value (average of n = 5): twice a day for one month, pore size rating (1-13) after minus before application, control 0.3
Method: An experiment was conducted whereby a sample was applied twice a day for one month to the cheeks of healthy human males in groups of 5 men each. Aqueous solutions (containing 15 mass % of ethanol) of 3 mass % of the β-alanine derivative or a salt thereof were prepared mainly as the evaluation sample. The pH was regulated by hydrochloric acid or sodium hydroxide so as to be 7.0 to 7.5. When the sample solubility was low, the solution was prepared accordingly. The control was an aqueous 15% ethanol solution. The sample aqueous solution and the control aqueous solution were applied to one half of the face at a time.
A replica was collected before and after continuous application, and changes in the shape of the pores at the same site were observed using a three-dimensional laser scanning microscope. The size of the pores was visually evaluated in the 13 steps of 1 through 13 (with the pores becoming larger as the numbers became larger), the difference in the ratings before and after application (after application—before application) was calculated, and the efficacy of each sample was studied using this difference as the replica assessment value.

hairless mice (HR-1) = experiment: Inhibiting effect on rough skin induced by oleic acid application (transepidermal water loss); assay type: in vivo, mouse; design: ΔTEWL value: unit not given here; settings: for rough skin preventing/ameliorating effect (ΔTEWL value versus control aqueous solution): in words, summary of Table 3; for ΔTEWL value: average of four mice, 3 days after 10 mass % oleic acid, control 12.0, increase = rough skin worse
Method: In order to investigate the inhibiting effect of β-alanine derivatives and salts thereof on rough skin induced by oleic acid application, the transepidermal water loss (TEWL value) before and after application was measured, the difference was compared with the control (control aqueous solution), and the effect was determined. […] The TEWL was determined using the TM210 TEWA Meter (Courage+Khazaka Electronic GmBH).
100 μL of 10 mass % oleic acid (solvent: ethanol) was applied to the back of hairless mice (HR-1, four mice per group). Then a sample solution (β-alanine derivatives) was applied 100 μL at a time. This procedure was continued for three days. On the following day, the TEWL value of the back was determined and the values of the four animals were averaged.

panel of 20 women = experiment: Sensory irritation tests; assay type: in vivo, human; settings: for sensory irritation: in words, summary of Table 4; for Evaluation (sensory irritation, class of average rating): 1 mL to cheek, rated for ten minutes
Method: 1 mL of a control aqueous solution and the sample aqueous solution prepared in Example 1 were applied using a cotton swab to the left or right cheek, respectively, of each member of a panel of 20 women, and the irritating sensation was evaluated every 30 seconds for ten minutes beginning immediately after application, whereby a final evaluation was reported. The evaluation of the irritating sensation was made based on the following four levels of rating criteria, and the average rating was calculated, whereby the average was classified by the following criteria.
3: Continuation is not possible because of extremely strong irritation, such as tingling sensation, burning sensation, stinging sensation, itching, and the like.
2: Intolerable because of strong irritation, such as tingling sensation, burning sensation, stinging sensation, itching, and the like.
1: Tolerable, but with slight irritation such as tingling sensation, burning sensation, stinging sensation, itching, and the like.
0: Not particularly irritating.
(Evaluation Criteria) • A: average rating of less than 0.2 • B: average rating of from 0.2 to less than 1.0 • C: average rating of from 1.0 to less than 2.0 • D: average rating of 2.0 or greater

Structure (SMILES) | parakeratosis-inhibiting effect (hairless mouse (HR-1)) | Visual evaluation (average of four animals) (hairless mouse (HR-1); sample 3 mass %) | Parakeratosis value (average of four animals) (hairless mouse (HR-1); sample 3 mass %) | pore-shrinking effect [1] | Replica assessment value (average of n = 5) ([1]; sample 3 mass %) | rough skin preventing/ameliorating effect (ΔTEWL value versus control aqueous solution) (hairless mice (HR-1)) | ΔTEWL value (hairless mice (HR-1); sample 3 mass %) | sensory irritation (panel of 20 women) | Evaluation (sensory irritation, class of average rating) (panel of 20 women; sample 3 mass %) | Visual evaluation (average of four animals) (hairless mouse (HR-1); sample 1.5 mass %) | Parakeratosis value (average of four animals) (hairless mouse (HR-1); sample 1.5 mass %) | Replica assessment value (average of n = 5) ([1]; sample 1.0 mass %) | ΔTEWL value (hairless mice (HR-1); sample 1.5 mass %) | Evaluation (sensory irritation, class of average rating) (panel of 20 women; sample 1.5 mass %)
COc1ccccc1C(=O)NCCC(=O)O [N-(2′-methoxybenzoyl)-β-alanine] | reduced the parakeratosis value | 1.1 | 1.1 | effect was seen | −0.9 | effect was seen | 7.0 | no problem of sensory irritation | A (average rating of less than 0.2) | – | – | – | – | –
COc1ccc(C(=O)NCCC(=O)O)cc1 [N-(4′-methoxybenzoyl)-β-alanine] | reduced the parakeratosis value | – | – | effect was seen | – | effect was seen | – | no problem of sensory irritation | – | 1.2 | 1.1 | −1.2 | 5.7 | A (average rating of less than 0.2)
CN(CCC(=O)O)C1CCCCC1 [N-cyclohexyl-N-methyl-β-alanine] | reduced the parakeratosis value | 1.4 | 1.4 | effect was seen | −0.8 | effect was seen | 5.5 | no problem of sensory irritation | A (average rating of less than 0.2) | – | – | – | – | –
O=C(O)CCNc1ccccn1 [N-(2′-pyridyl)-β-alanine] | reduced the parakeratosis value | 1.4 | 1.3 | effect was seen | −0.8 | effect was seen | 5.5 | no problem of sensory irritation | A (average rating of less than 0.2) | – | – | – | – | –
O=C(O)CCNC(=O)C1CCCCC1 [N-cyclohexylcarbonyl-β-alanine] | reduced the parakeratosis value | 1.1 | 1.2 | effect was seen | −0.6 | effect was seen | 8.0 | no problem of sensory irritation | A (average rating of less than 0.2) | – | – | – | – | –
Cl.NCCC(N)=O [β-alanine amide hydrochloride salt] | reduced the parakeratosis value | 1.3 | 1.3 | effect was seen | −0.3 | effect was seen | 8.9 | no problem of sensory irritation | A (average rating of less than 0.2) | – | – | – | – | –
